Test [1] deals with C6 glioma tumors. Kind of test: C6 glioma tumors subcutaneously implanted in mice, oral administration. The conditions noted are these: 200 mg/kg/day, day 18 post-implantation, subcutaneous C6 tumors in BALB/c nu/nu mice. The class given is in vivo. The procedure:
The following protocol can be used to perform xenograft experiments:
Female athymic mice (BALB/c, nu/nu) are obtained from Simonsen Laboratories (Gilroy, Calif.). All animals are maintained under clean-room conditions in Micro-isolator cages with Alpha-dri bedding. They receive sterile rodent chow and water ad libitum.
Cell lines are grown in appropriate medium (for example, MEM, DMEM, Ham's F10, or Ham's F12 plus 5%-10% fetal bovine serum (FBS) and 2 mM glutamine (GLN)). All cell culture media, glutamine, and fetal bovine serum are purchased from Gibco Life Technologies (Grand Island, N.Y.) unless otherwise specified. All cells are grown in a humid atmosphere of 90-95% air and 5-10% CO2 at 37° C. All cell lines are routinely subcultured twice a week and are negative for mycoplasma as determined by the Mycotect method (Gibco).
Cells are harvested at or near confluency with 0.05% Trypsin-EDTA and pelleted at 450 x g for 10 min. […] Tumor growth is measured over 3 to 6 weeks using venier calipers. Tumor volumes are calculated as a product of length×width×height unless otherwise indicated. P values are calculated using the Students t-test. […]
The compounds also maintain excellent activity when tested in vivo. […] Tumor growth was measured using vernier calipers and tumor volumes were calculated as the product of length×width×height. […]

Test [2] can be described thus: Potency in vitro (data not shown).
Test [3] deals with T1, PDGFR (Homo sapiens, UniProt P09619).
T1 construct: expressed in transfected cells; host or cells: NIH 3T3 cells expressing PDGFR-β (lysate, Screening Lab, SUGEN)
Nature of the test: Inhibition constant (Ki) against PDGFR. The class given is biochemical. Conditions: data not shown.

For test [4], the system named is HUV-EC-C cells (VEGF). Nature of the test: HUV-EC-C assay, VEGF-stimulated 3H-thymidine incorporation (HUVEC-VEGF). It counts as cell-based. The conditions noted are these: Homo sapiens; Table 1. How it is done: (§1) The following protocol may also be used to measure a compound's activity against PDGF-R, FGF-R, VEGF, aFGF or Flk-1/KDR, all of which are naturally expressed by HUV-EC cells.
(§2) 1. […] After cells have detached from the flask, add an equal volume of assay medium and transfer to a 50 ml sterile centrifuge tube (Fisher Scientific, catalogue no. 05-539-6).
(§3) 2. Wash the cells with about 35 ml assay medium in the 50 ml sterile centrifuge tube by adding the assay medium, centrifuge for 10 minutes at approximately 200x g, aspirate the supernatant, and resuspend with 35 ml D-PBS. Repeat the wash two more times with D-PBS, resuspend the cells in about 1 ml assay medium/is cm^2 of tissue culture flask. Assay medium consists of F12K medium (Gibco BRL, catalogue no. 21127-014) and 0.5% heat-inactivated fetal bovine serum. Count the cells with a Coulter Counter® (Coulter Electronics, Inc.) and add assay medium to the cells to obtain a concentration of 0.8-1.0×10^5 cells/ml.
(§4) 3. Add cells to 96-well flat-bottom plates at 100 μl/well or 0.8-1.0×10^4 cells/well, incubate −24h at 37° C., 5% CO2.
(§5) 1. Make up two-fold test compound titrations in separate 96-well plates, generally 50 μM on down to 0 μM. Use the same assay medium as mentioned in day 0, step 2 above. Titrations are made by adding […] of test compound at 200 μM (4X the final well concentration) to the top well of a particular plate column. Since the stock test compound is usually 20 mM in DMSO, the 200 μM drug concentration contains 2% DMSO.
(§6) A diluent made up to 2% DMSO in assay medium (F12K+0.5% fetal bovine serum) is used as diluent for the test compound titrations in order to dilute the test compound but keep the DMSO concentration constant. Add this diluent to the remaining wells in the column at 60 μl/well. Take 60 μl from the 120 μl of 200 μM test compound dilution in the top well of the column and mix with the 60 μl in the second well of the column. Take 60 μl from this well and mix with the 60 μl in the third well of the column, and so on until two-fold titrations are completed. When the next-to-the-last well is mixed, take 60 μl of the 120 μl in this well and discard it. Leave the last well with 60 μl of DMSO/media diluent as a non-test compound-containing control. Make 9 columns of titrated test compound, enough for triplicate wells each for: (1) VEGF (obtained from Pepro Tech Inc., catalogue no. 100-200, (2) endothelial cell growth factor (ECGF) (also known as acidic fibroblast growth factor, or aFGF) (obtained from Boehringer Mannheim Biochemica, catalogue no. 1439 600), or, (3) human PDGF B/B (1276-956, Boehringer Mannheim, Germany) and assay media control. ECGF comes as a preparation with sodium heparin.
(§7) 2. Transfer 50 μl/well of the test compound dilutions to the 96-well assay plates containing the 0.8-1.0×10^4 cells/100 μl/well of the HUV-EC-C cells from day 0 and incubate […] at 37° C., 5% CO2.
(§8) 3. In triplicate, add 50 μl well of […] VEGF, 20 ng/ml ECGF, or media control to each test compound condition. As with the test compounds, the growth factor concentrations are 4X the desired final concentration. Use the assay media from day 0 step 2 to make the concentrations of growth factors. Incubate approximately 24 hours at 37° C., 5% CO2. Each well will have 50 μl test compound dilution, 50 μl growth factor or media, and 100 μl cells, which calculates to 200 μl/well total. Thus the 4X concentrations of test compound and growth factors become 1X once everything has been added to the wells.
(§9) 1. Add ^3H-thymidine (Amersham, catalogue no. TRK-686) at 1 μCi/well (10 μl/well of 100 μCi/ml solution made up in RPMI media +10% heat-inactivated fetal bovine serum) and incubate ˜24 h at 37° C., 5% CO2. RPMI is obtained from Gibco BRL, catalogue no. 11875-051.
(§10) 1. Freeze plates overnight at −20° C. […]
(In general: Uptake of a labelled nucleoside into DNA is a usual measure of proliferation.)

Test [5] concerns HUV-EC-C cells (aFGF). Kind of test: HUV-EC-C assay, aFGF (ECGF)-stimulated 3H-thymidine incorporation (HUVEC-aFGF). The class given is cell-based. The conditions noted are these: Homo sapiens; Table 1. The procedure: as §1, §2, §3, §4, §5, §6, §7, §8, §9, §10

SMILES strings stand for the structures.

T1 sequence (P09619 33-1106): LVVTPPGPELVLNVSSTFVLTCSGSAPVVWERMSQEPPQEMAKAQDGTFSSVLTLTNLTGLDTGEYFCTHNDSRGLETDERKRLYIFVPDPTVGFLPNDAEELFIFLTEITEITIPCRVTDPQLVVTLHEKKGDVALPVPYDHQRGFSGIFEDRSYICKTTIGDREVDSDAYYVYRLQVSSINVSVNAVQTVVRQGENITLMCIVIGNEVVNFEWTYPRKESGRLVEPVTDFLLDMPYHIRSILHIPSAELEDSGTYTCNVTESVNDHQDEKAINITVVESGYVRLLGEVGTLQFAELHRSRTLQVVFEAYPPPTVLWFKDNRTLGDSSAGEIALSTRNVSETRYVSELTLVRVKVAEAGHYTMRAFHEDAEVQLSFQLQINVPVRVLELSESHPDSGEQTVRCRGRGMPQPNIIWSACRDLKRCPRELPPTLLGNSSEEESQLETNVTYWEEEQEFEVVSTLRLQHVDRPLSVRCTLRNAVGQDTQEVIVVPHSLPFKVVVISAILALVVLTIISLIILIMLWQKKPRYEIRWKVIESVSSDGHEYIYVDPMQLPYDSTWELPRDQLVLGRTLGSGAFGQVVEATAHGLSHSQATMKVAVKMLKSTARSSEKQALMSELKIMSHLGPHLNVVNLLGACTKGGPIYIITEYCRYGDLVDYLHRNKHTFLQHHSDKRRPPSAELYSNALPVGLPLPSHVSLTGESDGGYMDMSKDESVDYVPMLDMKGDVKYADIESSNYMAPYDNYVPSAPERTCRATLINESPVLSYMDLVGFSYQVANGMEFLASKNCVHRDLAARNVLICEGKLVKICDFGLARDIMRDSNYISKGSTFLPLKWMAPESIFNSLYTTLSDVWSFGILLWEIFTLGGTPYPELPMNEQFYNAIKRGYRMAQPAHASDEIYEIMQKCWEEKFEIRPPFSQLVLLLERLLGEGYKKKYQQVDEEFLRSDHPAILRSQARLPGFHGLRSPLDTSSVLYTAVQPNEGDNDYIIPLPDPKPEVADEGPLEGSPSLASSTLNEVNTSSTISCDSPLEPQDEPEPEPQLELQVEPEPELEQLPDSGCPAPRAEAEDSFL

As to `O=C(O)CCc1c(/C=C2\C(=O)Nc3ccc(Br)cc32)[nH]c2c1CCCC2` [Compound 65], the “inhibition of tumor growth” value in test [1] is “approximately 65%”. In addition, the “potency in vitro compared to compound 5” value in test [2] is given as “almost an order of magnitude greater potency in vitro”.
Regarding `CC1C(CCC(=O)O)=CNC1/C=C1\C(=O)Nc2ccccc21` (stereo not shown) [Compound 71], in test [1], the “inhibition of tumor growth” value was 51%.
With `Cc1[nH]c(/C=C2\C(=O)Nc3ccccc32)c(C)c1CCC(=O)O` [Example 5, 3-[2,4-Dimethyl-5-(2-oxo-1,2-dihydroindol-3-ylidenemethyl)-1H-pyrrol-3-yl]-propionic acid], the “Ki (inhibition constant) against PDGFR, compared to compound 70” value in test [3] was “significantly smaller”.
Take `CCOc1cccc(-c2ccc3c(c2)NC(=O)/C3=C\c2[nH]cc(CCC(=O)O)c2C)c1` [Example 31, 3-{5-[6-(3-Ethoxy-phenyl)-2-oxo-1,2-dihydroindol-3-ylidenemethyl]-4-methyl-1H-pyrrol-3-yl}-propionic acid]: the half-maximal inhibitory concentration (IC50) in test [4] worked out at 90 nM; in test [5], 180 nM.
Regarding `Cc1[nH]c(/C=C2\C(=O)Nc3cc(-c4ccccc4)ccc32)c(C)c1CCC(=O)O` [Example 32, 3-[2,4-Dimethyl-5-(2-oxo-6-phenyl-1,2-dihydroindol-3-ylidenemethyl)-1H-pyrrol-3-yl]-propionic acid], the IC50 in test [4] and in test [5] was 10000 nM in each case.
For `Cc1c(CCC(=O)O)c[nH]c1/C=C1\C(=O)Nc2cc(-c3ccccc3)ccc21` [Example 33, 3-[4-Methyl-5-(2-oxo-6-phenyl-1,2-dihydro-indol3-ylidenemethyl)-1H-pyrrol-3-yl]-propionic acid], the results for the IC50 in test [4] and in test [5] were 810 nM and 1000 nM, respectively.

One may read the IC50 as the concentration that inhibits the measured activity by half. Low readings indicate greater potency in that assay, high ones weaker potency in that assay.

Source of the values: patent publication US7119090B2, “Pyrrole substituted 2-indolinone protein kinase inhibitors” (Sugen, Inc., priority 1998, dated 2006).
